The target in assay [1] is EGFR double mutation L858R/T790M (H1975 cells) (Homo sapiens (Human), UniProt P00533, L858R/T790M). Kind of assay: Phospho-EGFR signaling (immunoblotting, 1 hr) in H1975 cells. Type of assay: cell-based. The conditions noted are these: signaling EC50 WT (A431) / H1975. The method, then: (§1) A431 human epidermoid carcinoma, H1975 human NSCLC and HCC827 human NSCLC adenocarcinoma cells were obtained from the American Type Culture Center (Manassas, Va.). A431 cells were grown in DMEM (Invitrogen, Carlsbad, Calif.) supplemented with 10% FBS (HyClone, South Logan, Utah) and 1% Penicillin-Streptomycin (P/S, Lonza, Walkersville, Md.).
All primary antibodies were obtained from Cell Signaling (Danvers, Mass.) and used at 1:1000. Secondary antibodies were used at 1:10,000. Goat anti-mouse IgG IRDye 800CW antibody was obtained from LiCor Biosciences (Lincoln, Nebr.) and goat anti-rabbit IgG Alexa Fluor 680 was obtained from Invitrogen.
Cells were grown in 12-well plates (Corning, Coring, N.Y.) to 90% confluence and then incubated in low-serum (0.1% FBS) media for 16-18 hr. […] A431 cells were then stimulated with 50 ng/ml EGF (Peprotech, Rocky Hill, N.J.) for 15 min. After treatment, cell monolayers were washed with cold PBS (Invitrogen) and immediately lysed by scrapping into 60 uL cold Cell Extraction Buffer (Invitrogen) supplemented with Complete Protease inhibitors (Roche, Indianapolis, Ind.) and PhosphoSTOP (Roche) phosphatase inhibitors.
Phospho-protein signals were quantitated using Odyssey Infrared Imaging (Li-Cor Biosciences).
To assess phosphor-EGFR signaling, blots were probed with rabbit anti-Phospho-EGFR (Y1068) and mouse total anti-EGFR antibodies. Phospho-EGFR signal was normalized to total EGFR expression for each sample. […] Normalized data was fitted using a sigmoidal curve analysis program (Graph Pad Prism version 5) with variable Hill slope to determine the EC50 values.
In general terms: A western blot detects proteins with antibodies after separation by electrophoresis.

The test system of the next assay is A431 cells (WT EGFR). Kind of assay: Cell proliferation (CellTiter Glo, 72 hr) in A431 cells. In kind it is cell-based. The conditions noted are these: Homo sapiens, A-431. The procedure:
as §1
(§2) Cells were plated in Growth Media supplemented with 5% FBS and 1% P/S at a density of 3,000 cells per well in 96 well tissue culture plates (Corning). […] Growth inhibition (GI50) values were determined by Graph Pad Prism.
Background: ATP-based viability assays read luminescence as a measure of living cells.

Assay [2] relates to H1975 cells (EGFR L858R/T790M). The assay is described as follows: Cell proliferation (CellTiter Glo, 72 hr) in H1975 cells. In kind it is cell-based, human. The conditions noted are these: Homo sapiens, NCI-H1975. The method, then: as §1, §2
Assay [3] concerns HCC827 cells (EGFR delE746-A750). Kind of assay: Cell proliferation (CellTiter Glo, 72 hr) in HCC827 cells. In kind it is cell-based, human. To be noted: Homo sapiens. The procedure: as §1, §2
The target in the next assay is pEGFR in H1975 cells (Homo sapiens (Human), UniProt P00533, L858R/T790M). The assay is described as follows: Washout experiment in H1975 cells (pEGFR). Type of assay: cell-based. The conditions noted are these: 500 nM for 1 hr; for inhibition at 0.5 µM: NCI-H1975. The procedure: Washout Experiment in H1975 Cells Containing EGFR Deletion/T790M Mutation
Cells were plated in Growth Media supplemented with 10% FBS and 1% P/S at a density of 2.0×10^5 cells per well in 12 well tissue culture plates. Cells were allowed to settle down for 4 hrs and then maintained in low-serum (0.1% FBS) media overnight.
The following morning the media was removed and the cells were treated with 500 nM test compound in low-serum media for 1 hr. The cells were washed free of compound 2× with PBS (Invitrogen). One set of cells were immediately lysed as indicated above as the 0 hr time point. The remaining cells were incubated with complete RPMI-1640 growth media (10% FBS) for 1, 3, 6 and 24 hr. For the first 1 hr, cells were washed 2× with PBS every 30 min. DMSO (0.5%) controls were collected at the 0, 3, 6 and 24 hr time points.

Where [4] appears, read: A431 cells, 72 hr, read-out: WT EGFR GI50.
The mark [5] stands for this setting: H1975 cells, 72 hr, read-out: H1975 GI50.
The mark [6] stands for this setting: HCC827 cells, 72 hr, read-out: HCC827 GI50.

Like-named read-outs stand apart in the source and are kept apart here. Bounds are passed on as bounds.

The values below come from patent publication US10434101B2, “Heterocyclic compounds and uses thereof” (Celgene CAR LLC, priority 2010, dated 2019).

The term GI50 denotes the concentration giving 50% growth inhibition. Take `C=CC(=O)Nc1cccc(Nc2nc(Nc3ccc(N4CCN(C(C)=O)CC4)cc3OC)ncc2Cl)c1` [Compound I-8, N-(3-(2-(4-(4-acetylpiperazin-1-yl)-2-methoxyphenylamino)-5-chloropyrimidin-4-ylamino)phenyl)acrylamide]: in assay [1], the “Ratio WT/mutant (H1975)” value is recorded as more than 1. The GI50 in the assay with A431 cells (WT EGFR) (setting [4]) fell in the range of 500 to 1000 nM; in assay [2] (setting [5]), 100 to 500 nM; in assay [3] (setting [6]) it was 10 to 100 nM.
As for `C=CC(=O)Nc1cccc(Nc2nc(Nc3ccc(N4CCN(C(C)=O)CC4)cc3OC)ncc2Br)c1` [Compound I-40, N-(3-(2-(4-(4-acetylpiperazin-1-yl)-2-methoxyphenylamino)-5-bromopyrimidin-4-ylamino)phenyl)acrylamide], the “Ratio WT/mutant (H1975)” value in assay [1] is recorded as more than 1. Further, the GI50 in the assay with A431 cells (WT EGFR) (setting [4]) was in the range of 500 to 1000 nM; in assay [2] (setting [5]) it was 100 to 500 nM; in assay [3] (setting [6]), 10 to 100 nM.
For the compound `C=CC(=O)Nc1cccc(Nc2nc(Nc3ccc(N4CCN(C(C)=O)CC4)cc3OC)ncc2C(F)(F)F)c1` [Compound I-4, N-(3-(2-(4-(4-acetylpiperazin-1-yl)-2-methoxyphenylamino)-5-(trifluoromethyl)pyrimidin-4-ylamino)phenyl)acrylamide], the GI50 is 500 to 1000 nM in the assay on A431 cells (WT EGFR) (setting [4]); 500 to 1000 nM in the assay on A431 cells (WT EGFR) (Table 2, A431 cells express WT EGFR, read-out: Comparative GI50 Values, A431); 10 to 100 nM in assay [2] (setting [5]); 10 to 100 nM in assay [2] (Table 2, H1975 express EGFR L858R/T790M, read-out: Comparative GI50 Values, H1975); 10 to 100 nM in assay [3] (setting [6]); 10 to 100 nM in assay [3] (Table 2, HCC827 express EGFR delE746-A750, read-out: Comparative GI50 Values, HCC827). Further, on pEGFR in H1975 cells (24 h after compound removal, by new protein synthesis), the pEGFR activity restored is reported as 40-60%. For the same compound, the inhibition at 0.5 µM at pEGFR in H1975 cells (1 hr after compound removal, read-out: pEGFR phosphorylation inhibited) is 80 to 100%; on pEGFR in H1975 cells (for at least 8 hours after compound was removed, read-out: pEGFR remained inhibited), 60 to 90%.
Turning to `C=CC(=O)Nc1cccc(Nc2nc(Nc3ccc(N4CCN(C(C)=O)CC4)cc3OC(F)(F)F)ncc2C(F)(F)F)c1` [Compound I-33, N-(3-(2-(4-(4-acetylpiperazin-1-yl)-2-(trifluoromethoxy)phenylamino)-5-(trifluoromethyl)pyrimidin-4-ylamino)phenyl)acrylamide], in assay [1], the “Ratio WT/mutant (H1975)” value is given as more than 50. The concentration for 50% growth inhibition (GI50) with A431 cells (WT EGFR) (setting [4]) is more than 1000 nM; in assay [2] (setting [5]) it was 10 to 100 nM; in assay [3] (setting [6]), 100 to 500 nM.
The matching figures for `C=CC(=O)Nc1cccc(Nc2nc(Nc3ccc(N4CCN(C(=O)CO)CC4)cc3OC)ncc2Cl)c1` [Compound I-12, N-(3-(5-chloro-2-(4-(4-(2-hydroxyacetyl)piperazin-1-yl)-2-methoxyphenylamino)pyrimidin-4-ylamino)phenyl)acrylamide]: more than 1, 500 to 1000 nM, 100 to 500 nM and 10 to 100 nM.
With `C=CC(=O)Nc1cccc(Nc2nc(Nc3ccc(N4CCS(=O)(=O)CC4)cc3OC)ncc2C(F)(F)F)c1` [Compound I-49, N-(3-(2-(2-methoxy-4,4-dioxo-4-thiomorpholinophenylamino)-5-(trifluoromethyl)pyrimidin-4-ylamino)phenyl)acrylamide], the “Ratio WT/mutant (H1975)” value in assay [1] is more than 20. Besides, the GI50 with A431 cells (WT EGFR) (setting [4]) is more than 1000 nM; in assay [2] (setting [5]), 100 to 500 nM; in assay [3] (setting [6]), 10 to 100 nM.
Consider `C=CC(=O)Nc1cccc(Oc2nc(Nc3ccc(N4CCN(S(C)(=O)=O)CC4)cc3OC)ncc2C(F)(F)F)c1` [Compound I-22, N-(3-(2-(2-methoxy-4-(4-(methylsulfonyl)piperazin-1-yl)phenylamino)-5-(trifluoromethyl)pyrimidin-4-yloxy)phenyl)acrylamide], for which the “Ratio WT/mutant (H1975)” value in assay [1] was more than 35. Moreover, the GI50 was more than 1000 nM in the assay on A431 cells (WT EGFR) (setting [4]), 100 to 500 nM in assay [2] (setting [5]) and 10 to 100 nM in assay [3] (setting [6]).
For `C=CC(=O)Nc1cccc(Nc2nc(Nc3ccc(N4CCN(C(C)=O)[C@H](C(=O)OC)C4)cc3OC)ncc2C(F)(F)F)c1` [Compound I-48], the “Ratio WT/mutant (H1975)” value in assay [1] is recorded as more than 50. Further, the GI50 is more than 1000 nM with A431 cells (WT EGFR) (setting [4]), 10 to 100 nM in assay [2] (setting [5]) and 10 to 100 nM in assay [3] (setting [6]).
Turning to `C=CC(=O)Nc1cccc(Nc2nc(Nc3ccc(N4CCCN(C(=O)OC(C)(C)C)CC4)cc3OC)ncc2C(F)(F)F)c1` [Compound I-44, tert-butyl 4-(4-(4-(3-acrylamidophenylamino)-5-(trifluoromethyl)pyrimidin-2-ylamino)-3-methoxyphenyl)-1,4-diazepane-1-carboxylate], the “Ratio WT/mutant (H1975)” value in assay [1] is more than 5. Moreover, the 50% growth inhibitory concentration (GI50) in the assay with A431 cells (WT EGFR) (setting [4]) was more than 1000 nM; in assay [2] (setting [5]) it was 500 to 1000 nM; in assay [3] (setting [6]), 500 to 1000 nM.
`C=CC(=O)Nc1cccc(Nc2nc(Nc3ccc(N4CCN(C(=O)CO)CC4)cc3OC)ncc2C(F)(F)F)c1` [Compound I-6, N-(3-(2-(4-(4-(2-hydroxyacetyl)piperazin-1-yl)-2-methoxyphenylamino)-5-(trifluoromethyl)pyrimidin-4-ylamino)phenyl)acrylamide]: the “Ratio WT/mutant (H1975)” value in assay [1] is recorded as more than 20. Besides, the GI50 is 500 to 1000 nM with A431 cells (WT EGFR) (setting [4]), 10 to 100 nM in assay [2] (setting [5]) and 10 to 100 nM in assay [3] (setting [6]).
As for `C=CC(=O)Nc1cccc(Nc2nc(Nc3ccc(N4CCCN(C(C)=O)CC4)cc3OC)ncc2C(F)(F)F)c1` [Compound I-7, N-(3-(2-(4-(4-acetyl-1,4-diazepan-1-yl)-2-methoxyphenylamino)-5-(trifluoromethyl)pyrimidin-4-ylamino)phenyl)acrylamide], the “Ratio WT/mutant (H1975)” value in assay [1] is on record as more than 5. For the same compound, the values for the GI50 (in the assay with A431 cells (WT EGFR) (setting [4]); in assay [2] (setting [5]); in assay [3] (setting [6])) were more than 1000 nM, 100 to 500 nM and 100 to 500 nM, respectively.
Turning to `C=CC(=O)Nc1cccc(Oc2nc(Nc3ccc(N4CCN(S(C)(=O)=O)CC4)cc3OC)ncc2Cl)c1` [Compound I-26, N-(3-(5-chloro-2-(2-methoxy-4-(4-(methylsulfonyl)piperazin-1-yl)phenylamino)pyrimidin-4-yloxy)phenyl)acrylamide], the “Ratio WT/mutant (H1975)” value in assay [1] was more than 40. Further, the GI50 in the assay on A431 cells (WT EGFR) (setting [4]) is more than 1000 nM; in assay [2] (setting [5]), more than 1000 nM; in assay [3] (setting [6]), 10 to 100 nM.
Take `C=CC(=O)Nc1cccc(Nc2nc(Nc3ccc(N4CCN(C(=O)C(C)(C)C)CC4)cc3OC)ncc2C(F)(F)F)c1` [Compound I-34, N-(3-(2-(2-methoxy-4-(4-pivaloylpiperazin-1-yl)phenylamino)-5-(trifluoromethyl)pyrimidin-4-ylamino)phenyl)acrylamide]: in assay [1], the “Ratio WT/mutant (H1975)” value is more than 35. For the same compound, the GI50 with A431 cells (WT EGFR) (setting [4]) was more than 1000 nM; in assay [2] (setting [5]) it was 100 to 500 nM; in assay [3] (setting [6]) it was 10 to 100 nM.
As for `C=CC(=O)Nc1cccc(Oc2nc(Nc3ccc(N4CCN(C(=O)NC)CC4)cc3OC)ncc2C(F)(F)F)c1` [Compound I-21, 4-(4-(4-(3-acrylamidophenoxy)-5-(trifluoromethyl)pyrimidin-2-ylamino)-3-methoxyphenyl)-N-methylpiperazine-1-carboxamide], in assay [1], the “Ratio WT/mutant (H1975)” value was more than 5. Moreover, the results for the GI50 (in the assay on A431 cells (WT EGFR) (setting [4]); in assay [2] (setting [5]); in assay [3] (setting [6])) were 500 to 1000 nM, 100 to 500 nM and 10 to 100 nM, respectively.
For the compound `C=CC(=O)Nc1cccc(Oc2nc(Nc3ccc(N4CCN(C(=O)CO)CC4)cc3OC)ncc2C(F)(F)F)c1` [Compound I-11, N-(3-(2-(4-(4-(2-hydroxyacetyl)piperazin-1-yl)-2-methoxyphenylamino)-5-(trifluoromethyl)pyrimidin-4-yloxy)phenyl)acrylamide], the “Ratio WT/mutant (H1975)” value in assay [1] was more than 15. The GI50 is more than 1000 nM in the assay on A431 cells (WT EGFR) (setting [4]), 100 to 500 nM in assay [2] (setting [5]) and 10 to 100 nM in assay [3] (setting [6]).
